Experiment: xn = mol fraction of the nth substance listed
Conditions: 101.3 kPa, Liquid; for viscosity: Concentric cylinders viscometry; for mass density: Vibrating tube method

CCn1cc[n+](C)c1C.O=S(=O)([N-]S(=O)(=O)C(F)(F)F)C(F)(F)F + CCOC(=O)OCC
Conditions | mass density [kg/m3] | viscosity [mPa·s]
293.15 K, x1 = 0.1731 | 1150.1 | 3.168
293.15 K, x1 = 0.302 | 1242.2 | 6.382
293.15 K, x1 = 0.4028 | 1298.8 | 10.53
293.15 K, x1 = 0.4991 | 1343.7 | 16.14
293.15 K, x1 = 0.6093 | 1387 | 25.06
293.15 K, x1 = 0.7039 | 1418.8 | 35.42
293.15 K, x1 = 0.7951 | 1445.6 | 48.11
293.15 K, x1 = 0.8901 | 1470.6 | 64.72
293.15 K, x1 = 1 | 1495.8 | 89.88
298.15 K, x1 = 0.1731 | 1144.8 | 2.871
298.15 K, x1 = 0.302 | 1237.1 | 5.646
298.15 K, x1 = 0.4028 | 1293.7 | 9.149
298.15 K, x1 = 0.4991 | 1338.7 | 13.79
298.15 K, x1 = 0.6093 | 1382 | 21.02
298.15 K, x1 = 0.7039 | 1413.9 | 29.27
298.15 K, x1 = 0.7951 | 1440.8 | 39.24
298.15 K, x1 = 0.8901 | 1465.8 | 52.12
298.15 K, x1 = 1 | 1491 | 71.34
303.15 K, x1 = 0.1731 | 1139.5 | 2.615
303.15 K, x1 = 0.302 | 1232 | 5.032
303.15 K, x1 = 0.4028 | 1288.6 | 8.021
303.15 K, x1 = 0.4991 | 1333.7 | 11.9
303.15 K, x1 = 0.6093 | 1377.1 | 17.84
303.15 K, x1 = 0.7039 | 1409 | 24.52
303.15 K, x1 = 0.7951 | 1435.9 | 32.49
303.15 K, x1 = 0.8901 | 1461 | 42.65
303.15 K, x1 = 1 | 1486.3 | 57.64
308.15 K, x1 = 0.1731 | 1134.2 | 2.394
308.15 K, x1 = 0.302 | 1226.9 | 4.515
308.15 K, x1 = 0.4028 | 1283.6 | 7.089
308.15 K, x1 = 0.4991 | 1328.7 | 10.37
308.15 K, x1 = 0.6093 | 1372.2 | 15.31
308.15 K, x1 = 0.7039 | 1404.1 | 20.78
308.15 K, x1 = 0.7951 | 1431.1 | 27.23
308.15 K, x1 = 0.8901 | 1456.2 | 35.38
308.15 K, x1 = 1 | 1481.5 | 47.26
313.15 K, x1 = 0.1731 | 1128.9 | 2.201
313.15 K, x1 = 0.302 | 1221.7 | 4.076
313.15 K, x1 = 0.4028 | 1278.5 | 6.312
313.15 K, x1 = 0.4991 | 1323.7 | 9.113
313.15 K, x1 = 0.6093 | 1367.3 | 13.27
313.15 K, x1 = 0.7039 | 1399.3 | 17.81
313.15 K, x1 = 0.7951 | 1426.2 | 23.1
313.15 K, x1 = 0.8901 | 1451.4 | 29.72
313.15 K, x1 = 1 | 1476.7 | 39.24
318.15 K, x1 = 0.1731 | 1123.6 | 2.032
318.15 K, x1 = 0.302 | 1216.5 | 3.7
318.15 K, x1 = 0.4028 | 1273.5 | 5.657
318.15 K, x1 = 0.4991 | 1318.8 | 8.07
318.15 K, x1 = 0.6093 | 1362.4 | 11.6
318.15 K, x1 = 0.7039 | 1394.4 | 15.41
318.15 K, x1 = 0.7951 | 1421.4 | 19.8
318.15 K, x1 = 0.8901 | 1446.6 | 25.24
318.15 K, x1 = 1 | 1472 | 33
323.15 K, x1 = 0.1731 | 1118.3 | 1.882
323.15 K, x1 = 0.302 | 1211.3 | 3.375
323.15 K, x1 = 0.4028 | 1268.4 | 5.102
323.15 K, x1 = 0.4991 | 1313.8 | 7.196
323.15 K, x1 = 0.6093 | 1357.5 | 10.22
323.15 K, x1 = 0.7039 | 1389.6 | 13.45
323.15 K, x1 = 0.7951 | 1416.6 | 17.14
323.15 K, x1 = 0.8901 | 1441.8 | 21.66
323.15 K, x1 = 1 | 1467.2 | 28.05
328.15 K, x1 = 0.1731 | 1112.9 | 1.75
328.15 K, x1 = 0.302 | 1206.2 | 3.098
328.15 K, x1 = 0.4028 | 1263.4 | 4.633
328.15 K, x1 = 0.4991 | 1308.9 | 6.468
328.15 K, x1 = 0.6093 | 1352.5 | 9.095
328.15 K, x1 = 0.7039 | 1384.7 | 11.86
328.15 K, x1 = 0.7951 | 1411.8 | 15
328.15 K, x1 = 0.8901 | 1437 | 18.81
328.15 K, x1 = 1 | 1462.4 | 24.16
